Test results taken from patent publication US20250049806A1, “PHARMACEUTICAL COMPOSITION FOR PROVIDING TREATMENT FOR OR PREVENTING ALPORT SYNDROME” (UBE Corporation, priority 2021, published 2025).

Experiment: Transcellular transport test using Caco2 cell
Assay type: in vitro ADME
Conditions: human, Caco-2, apical-to-basolateral (A-to-B), pH=7.4, 10 µM compound
Method: Caco2 cells (purchased from ATCC) were cultured in DMEM medium (Thermo Fisher Scientific, Inc., 11965) containing 10% FBS (Thermo Fisher Scientific, Inc., 10082) and 1% penicillin/streptomycin/amphotericin B (Thermo Fisher Scientific, Inc., 15240). A transcellular transport test was carried out in accordance with MultiScreen Caco2 Drug Transport Assembly in a 96-well system (Application Note AN1727EN, MultiScreen Caco-2 Assay System, Merck) by partially modifying it. The Caco2 cells were inoculated at a cell density of 4×10^4 cells/well onto a micropore polycarbonate insert of a 96-well plate (Merck, Millcell-96 culture insert plate 0.4 μm pore size, well membrane area=0.11 cm^2, PSHT004S5) and cultured for 20 to 22 days, and the resulting monolayer was used in the transcellular transport test. The medium of the inoculated cells was replaced with a fresh one every 3 to 4 days.
Apical-to-basolateral (A-to-B) transport in the Caco2 cell monolayer membrane was performed by using HBSS (Thermo Fisher Scientific, Inc., 14025) medium (pH=7.4) containing 20 mM HEPES (Thermo Fisher Scientific, Inc., 15630), and adding HEPES-containing HBSS medium containing 10 µM compound (a 10 mM solution of the compound in DMSO was added at a 1000-fold dilution; final DMSO concentration: 0.1%) at 75 μL/well to the apical side and HEPES-containing HBSS medium supplemented with no compound at 250 μL/well to the basolateral side, followed by culture at 37° C. for 90 minutes. After culture, a 100 μL aliquot was collected from the basolateral side, and the concentration of a permeated compound was measured by LC-MS/MS under measurement conditions mentioned later. Papp (apparent permeability; cm/sec) was calculated from the determined concentration. Papp was determined according to the expression given below by calculating the slope (dA/dt; nmol/sec) of a straight line drawn between two points 0 minutes and zero amount of the compound in a graph plotted with an assay time (90 min) on the abscissa against the amount of the compound in the solution on the permeated side on the ordinate. As for an assay concentration, the concentration in the compound in the HEPES-containing HBSS medium containing the added compound was measured by UV-HPLC under measurement conditions mentioned later.
C0: assay concentration, S: plate membrane area=0.11 cm^2
• LC: LC20 or LC30 HPLC system manufactured by Shimadzu Corp. • Column: Phenomenex Kinetex C18 (50 mm×2.1 mm, 2.6 μm) • Column temperature: 40° C. • Flow rate: 0.3 mL/min • Mobile phase A: 0.1% aqueous formic acid solution • Mobile phase B: 0.1% formic acid, 50% acetonitrile/methanol mixed solution • Gradient: 0-2 min; A/B=90/10 to 10/90, 2-3 min; A/B=10/90, 3-3.01 min; A/B=10/90 to 90/10 • MS: Q-Trap3200 manufactured by AB Sciex Pte. Ltd. • Ionization: ESI • Mode: Positive
• LC: LC20 or LC30 HPLC system manufactured by Shimadzu Corp. • Column: Phenomenex Kinetex C18 (100 mm×2.1 mm, 2.6 μm) • Column temperature: 40° C. • Flow rate: 0.25 mL/min • Mobile phase A: 0.1% aqueous formic acid solution • Mobile phase B: 0.1% formic acid, 50% acetonitrile/methanol mixed solution • Gradient: 0-3 min; A/B=90/10, 3-11 min; A/B=90/10 to 5/95, 11-15 min; A/B=5/95, 15-15.1 min; A/B=5/95 to 90/10 • UV detector: photodiode array detector
A: Papp>1×10^−6 (cm/sec), B: 1×10^−6 (cm/sec)≥Papp>5×10^−7 (cm/sec), C: 5×10^−7 (cm/sec)≥Papp>1×10^−7 (cm/sec), or D: Papp≤1×10^−7 (cm/sec).

| SMILES | Papp A→B at 90 min, 10 µM [×10⁻⁶ cm/s] |
| --- | --- |
| O=C(O)C[C@H](NC(=O)CNC(=O)c1cc(NC2=NCC(F)CN2)c2cn[nH]c2c1)c1cc(-n2cccn2)cc(C(F)(F)F)c1 (stereo partly drawn) [8-(b), (3S)-3-(3-(1H-pyrazol-1-yl)-5-(trifluoromethyl)phenyl)-3-(2-(4-((5-fluoro-1,4,5,6-tetrahydropyrimidin-2-yl)amino)-1H-indazole-6-carboxamido)acetamido)propanoic acid] | 0.5 to 1 |
| O=C(O)C[C@H](NC(=O)CNC(=O)c1cc(NC2=NCC(F)CN2)c2cn[nH]c2c1)c1cc(C(F)(F)F)cc(C(F)(F)F)c1 (stereo partly drawn) [7-(b), (3S)-3-(3,5-bis(trifluoromethyl)phenyl)-3-(2-(4-((5-fluoro-1,4,5,6-tetrahydropyrimidin-2-yl)amino)-1H-indazole-6-carboxamido)acetamido)propanoic acid] | 0.5 to 1 |
| O=C(O)C[C@H](NC(=O)CNC(=O)c1cc(NC2=NCC(F)CN2)c2cn[nH]c2c1)c1cc(Cl)cc(Br)c1 (stereo partly drawn) [18-(b), (3S)-3-(3-bromo-5-chlorophenyl)-3-(2-(4-((5-fluoro-1,4,5,6-tetrahydropyrimidin-2-yl)amino)-1H-indazole-6-carboxamido)acetamido)propanoic acid] | > 1 |
| O=C(O)C[C@H](NC(=O)CNC(=O)c1cc(NC2=NCC(F)CN2)c2cn[nH]c2c1)c1cc(OC(F)F)cc(OC(F)F)c1 (stereo partly drawn) [30-(b), (3S)-3-(3,5-bis(difluoromethoxy)phenyl)-3-(2-(4-((5-fluoro-1,4,5,6-tetrahydropyrimidin-2-yl)amino)-1H-indazole-6-carboxamido)acetamido)propanoic acid] | 0.5 to 1 |
| O=C(O)C[C@H](NC(=O)CNC(=O)c1cc(NC2=NCC(F)CN2)c2cn[nH]c2c1)c1ccc(F)c(C(F)(F)F)c1 (stereo partly drawn) [13-(b), (3S)-3-(2-(4-((5-fluoro-1,4,5,6-tetrahydropyrimidin-2-yl)amino)-1H-indazole-6-carboxamido)acetamido)-3-(4-fluoro-3-(trifluoromethyl)phenyl)propanoic acid] | > 1 |
| O=C(O)C[C@H](NC(=O)CNC(=O)c1cc(NC2=NCC(F)CN2)c2cn[nH]c2c1)c1cc(Br)ccc1F (stereo partly drawn) [23-(b), (3S)-3-(5-bromo-2-fluorophenyl)-3-(2-(4-((5-fluoro-1,4,5,6-tetrahydropyrimidin-2-yl)amino)-1H-indazole-6-carboxamido)acetamido)propanoic acid] | > 1 |
| O=C(O)C[C@H](NC(=O)CNC(=O)c1cc(NC2=NCC(F)CN2)c2cn[nH]c2c1)c1cc(OC(F)F)ccc1F (stereo partly drawn) [28-(b), (3S)-3-(5-(difluoromethoxy)-2-fluorophenyl)-3-(2-(4-((5-fluoro-1,4,5,6-tetrahydropyrimidin-2-yl)amino)-1H-indazole-6-carboxamido)acetamido)propanoic acid] | > 1 |
| Cc1cc(C)n(-c2cccc([C@H](CC(=O)O)NC(=O)CNC(=O)c3cc(NC4=NCC(F)CN4)c4cn[nH]c4c3)c2)n1 (stereo partly drawn) [44-(b), (3S)-3-(3-(3,5-dimethyl-1H-pyrazol-1-yl)phenyl)-3-(2-(4-((5-fluoro-1,4,5,6-tetrahydropyrimidin-2-yl)amino)-1H-indazole-6-carboxamido)acetamido)propanoic acid] | 0.5 to 1 |
| O=C(O)C[C@H](NC(=O)CNC(=O)c1cc(NC2=NCC(F)CN2)c2cn[nH]c2c1)c1cc(Cl)cc(OC(F)F)c1 (stereo partly drawn) [25-(b), (3S)-3-(3-chloro-5-(difluoromethoxy)phenyl)-3-(2-(4-((5-fluoro-1,4,5,6-tetrahydropyrimidin-2-yl)amino)-1H-indazole-6-carboxamido)acetamido)propanoic acid] | > 1 |
| O=C(O)C[C@H](NC(=O)CNC(=O)c1cc(NC2=NCC(F)CN2)cc2[nH]ncc12)c1ccc(F)c(C(F)(F)F)c1 (stereo partly drawn) [55-(b), (3S)-3-(2-(6-((5-fluoro-1,4,5,6-tetrahydropyrimidin-2-yl)amino)-1H-indazole-4-carboxamido)acetamido)-3-(4-fluoro-3-(trifluoromethyl)phenyl)propanoic acid] | 0.1 to 0.5 |
| O=C(O)C[C@H](NC(=O)CNC(=O)c1cc(NC2=NCC(F)CN2)c2cn[nH]c2c1)c1cccc(C(F)(F)F)c1F (stereo partly drawn) [9-(b), (3S)-3-(2-(4-((5-fluoro-1,4,5,6-tetrahydropyrimidin-2-yl)amino)-1H-indazole-6-carboxamido)acetamido)-3-(2-fluoro-3-(trifluoromethyl)phenyl)propanoic acid] | > 1 |
| O=C(O)C[C@H](NC(=O)CNC(=O)c1cc(NC2=NCC(F)CN2)c2cn[nH]c2c1)c1cc(Cl)cc(I)c1 (stereo partly drawn) [21-(b), (3S)-3-(3-chloro-5-iodophenyl)-3-(2-(4-((5-fluoro-1,4,5,6-tetrahydropyrimidin-2-yl)amino)-1H-indazole-6-carboxamido)acetamido)propanoic acid] | > 1 |
| O=C(O)C[C@H](NC(=O)CNC(=O)c1cc(NC2=NCC(F)CN2)c2c(Cl)n[nH]c2c1)c1cc(Cl)cc(C(F)(F)F)c1 (stereo partly drawn) [49-(b), (3S)-3-(2-(3-chloro-4-((5-fluoro-1,4,5,6-tetrahydropyrimidin-2-yl)amino)-1H-indazole-6-carboxamido)acetamido)-3-(3-chloro-5-(trifluoromethyl)phenyl)propanoic acid] | 0.5 to 1 |
| COc1cc([C@H](CC(=O)O)NC(=O)CNC(=O)c2cc(NC3=NCC(F)CN3)c3cn[nH]c3c2)cc(C(F)(F)F)c1 (stereo partly drawn) [5-(b), (3S)-3-(2-(4-((5-fluoro-1,4,5,6-tetrahydropyrimidin-2-yl)amino)-1H-indazole-6-carboxamido)acetamido)-3-(3-methoxy-5-(trifluoromethyl)phenyl)propanoic acid] | 0.5 to 1 |
| O=C(O)C[C@H](NC(=O)CNC(=O)c1cc(NC2=NCC(F)CN2)c2cn[nH]c2c1)c1cc(Cl)cc(OC(F)(F)F)c1 (stereo partly drawn) [31-(b), (3S)-3-(3-chloro-5-(trifluoromethoxy)phenyl)-3-(2-(4-((5-fluoro-1,4,5,6-tetrahydropyrimidin-2-yl)amino)-1H-indazole-6-carboxamido)acetamido)propanoic acid] | > 1 |
| O=C(O)C[C@H](NC(=O)CNC(=O)c1cc(NC2=NCC(F)CN2)c2cn[nH]c2c1)c1cc(C(F)(F)F)ccc1F (stereo partly drawn) [11-(b), (3S)-3-(2-(4-((5-fluoro-1,4,5,6-tetrahydropyrimidin-2-yl)amino)-1H-indazole-6-carboxamido)acetamido)-3-(2-fluoro-5-(trifluoromethyl)phenyl)propanoic acid] | > 1 |
| O=C(O)C[C@H](NC(=O)CNC(=O)c1cc(NC2=NCC(F)CN2)cc2[nH]ncc12)c1cccc(C(F)(F)F)c1 (stereo partly drawn) [56-(b), (3S)-3-(2-(6-((5-fluoro-1,4,5,6-tetrahydropyrimidin-2-yl)amino)-1H-indazole-4-carboxamido)acetamido)-3-(3-(trifluoromethyl)phenyl)propanoic acid] | 0.1 to 0.5 |
| O=C(O)C[C@H](NC(=O)CNC(=O)c1cc(NC2=NCC(F)CN2)c2cn[nH]c2c1)c1cccc(Cl)c1 (stereo partly drawn) [41-(b), (3S)-3-(3-chlorophenyl)-3-(2-(4-((5-fluoro-1,4,5,6-tetrahydropyrimidin-2-yl)amino)-1H-indazole-6-carboxamido)acetamido)propanoic acid] | > 1 |
| O=C(O)C[C@H](NC(=O)CNC(=O)c1cc(NC2=NCC(F)CN2)c2c(F)n[nH]c2c1)c1cc(Cl)cc(C(F)(F)F)c1 (stereo partly drawn) [48-(b), (3S)-3-(3-chloro-5-(trifluoromethyl)phenyl)-3-(2-(3-fluoro-4-((5-fluoro-1,4,5,6-tetrahydropyrimidin-2-yl)amino)-1H-indazole-6-carboxamido)acetamido)propanoic acid] | > 1 |
